This data set can be described thus: Appearance of aqueous mixtures of star polymer, dye alone and loaded star polymers (FIG. 10). As to conditions: in water, FIG. 10 vials A-D. The data set is classed as physicochemical. How it is done: The solution was added drop-wise to water (0.9 mL) with rapid stirring, causing the water to rapidly and uniformly color from the dye. Excess solid dye material not adsorbed to the star polymer was removed by passing the mixture through a 0.2 micrometer syringe filter, thereby forming a clear and uniformly colored aqueous solution. The further addition of water had no visible effect on the homogeneity of the solution.
FIG. 10 is a photograph of four aqueous mixtures. […] The vial labeled C is an aqueous mixture of 5,10,15,20-(3,5-ditertbutylphenyl)porphyrin (M=2H) (DTBP) alone in water.

Molecules are shown by their SMILES.

Consider `CC(C)(C)c1cc(-c2c3nc(c(-c4cc(C(C)(C)C)cc(C(C)(C)C)c4)c4ccc([nH]4)c(-c4cc(C(C)(C)C)cc(C(C)(C)C)c4)c4nc(c(-c5cc(C(C)(C)C)cc(C(C)(C)C)c5)c5ccc2[nH]5)C=C4)C=C3)cc(C(C)(C)C)c1` [DTBP, 5,10,15,20-(3,5-ditertbutylphenyl)porphyrin (M=2H)], for which the “appearance of aqueous solution / mixture” value is “clear and colorless”.

The record behind these values is US8765098B2, “Star polymers, methods of preparation thereof, and uses thereof” (International Business Machines Corporation, priority 2010, dated 2014).
